# Reference: US20190367567A1 (priority 2016, published 2019)
# Where a SMILES comes first, the peptide text is derived from it.
# What was measured:
# [1] = tested on: human H1N1 influenza A virus A/Puerto Rico/8/1934 (PR8); settings: human virus A/Puerto Rico/8/1934 (PR8)
# PR8 virus = tested on: PR8 virus; set-up: species or system influenza A virus
# [2] = biological target: H1 HA of A/Puerto Rico/8/1934 H1N1 influenza virus (influenza A virus A/Puerto Rico/8/1934 H1N1) (UniProt P03452); experiment: cell-based or functional assay
compound,measurement,setting,value
CC[C@H](C)[C@H](NC(=O)CNC(=O)[C@H](CC(C)C)NC(=O)CNC(=O)[C@H](C)NC(=O)CNC(=O)[C@H](CCCCN)NC(=O)[C@H](C)NC(=O)[C@@H](NC(=O)CNC(=O)[C@@H](NC(=O)[C@H](C)NC(=O)[C@@H](NC(=O)[C@H](CC(=O)O)NC(=O)[C@H](CCCCN)NC(=O)[C@H](CC(C)C)NC(=O)[C@H](CCCCN)NC(=O)[C@@H](NC(=O)[C@@H](NC(=O)[C@H](Cc1ccccc1)NC(=O)[C@@H](N)CO)C(C)C)[C@@H](C)O)C(C)C)[C@@H](C)CC)C(C)C)C(=O)N[C@@H](CC(C)C)C(=O)N[C@@H](CCCCN)C(=O)N[C@H](C(=O)N[C@@H](CC(C)C)C(=O)N[C@H](C(=O)N[C@@H](CS)C(=O)N[C@@H](CCCCN)C(=O)N[C@@H](CC(C)C)C(=O)N[C@@H](CC(=O)O)C(=O)N[C@@H](CC(N)=O)C(=O)N[C@@H](CO)C(=O)N[C@@H](CS)C(=O)N[C@@H](C)C(=O)O)[C@@H](C)O)[C@@H](C)O [Peptide 28] (H-SFVTKLKDVAIGVAKGAGLGILKTLTCKLDNSCA-OH),hemolytic activity,human erythrocytes; at 10 μM,hemolytic activity
CC[C@H](C)[C@H](N)C(=O)N1CCC[C@H]1C(=O)N[C@@H](CC(C)C)C(=O)N[C@@H](CCCNC(=N)N)C(=O)NCC(=O)N[C@@H](C)C(=O)N[C@@H](Cc1ccccc1)C(=O)N[C@H](C(=O)N[C@@H](CC(N)=O)C(=O)NCC(=O)N[C@@H](CCCNC(=N)N)C(=O)N[C@@H](Cc1c[nH]c2ccccc12)C(=O)N[C@@H](CC(=O)O)C(=O)N[C@@H](CO)C(=O)N[C@@H](CCC(N)=O)C(=O)N[C@@H](CS)C(=O)N[C@@H](Cc1c[nH]cn1)C(=O)N[C@@H](CCCNC(=N)N)C(=O)N[C@@H](Cc1ccccc1)C(=O)N[C@@H](CO)C(=O)N[C@@H](CC(N)=O)C(=O)NCC(=O)N[C@@H](C)C(=O)N[C@H](C(=O)N[C@@H](C)C(=O)N[C@@H](CS)C(=O)N[C@@H](C)C(=O)O)[C@@H](C)CC)[C@@H](C)CC [Urumin] (H-IPLRGAFINGRWDSQCHRFSNGAIACA-OH),IC50,[1],3.8 µM
same,concentration reaching a 20% level of toxicity,human erythrocytes,1430 µM
same,toxicity to human erythrocytes (hemolysis),human erythrocytes,no toxicity
OVA257-264 peptide [OVA peptide],integrity of virus particles by electron microscopy,PR8 virus,appear intact
Urumin (peptide),"IC50, plaque assay against PR8 virus",[2],3.8 µM
